Laboratory results reported in publication PMC12627232 (MedComm, 2025).

Experiments:
MDA-MB-231 xenograft = MDA-MB-231 xenograft model; format: in vivo, BALB/c-nu mice
Description: BALB/c‐nu mice were obtained from Pengyue Co. Ltd. (Jinan, China) and were fed in laminar flow cabinets under specific pathogen‐free (SPF) conditions. With the approval of ethics committee of Shandong University, the animal experiments were conducted. To establish the MDA‐MB‐231 xenograft model, BALB/c‐nu mice (3–4 weeks old and 15–18 g body weight, male) were selected and injected subcutaneously into the armpits with 1.2 × 10^7 MDA‐MB‐231 cells. […] Body weight and tumor size were measured every 3 days during the 22‐day treatment.

MDA-MB-231 cells [1] = experiment: Western blotting (immunoblotting); format: cell-based, human; details: 24 h
Source text: Anti‐H3 (#13998), anticleaved Caspase‐3 (#9661) and anti‐PARP (#9542) antibody was purchased from Cell Signal Technology (CST). Anti‐Caspase‐3 (T40044) was brought from Abmart. Antitubulin antibody (ab179484) was obtained from Abcam PLC. Anti‐Bcl‐2 (F0125) and anti‐Bax (F0037) antibody were purchased from Selleck Chemicals. Anti‐GAPDH antibody (AF1186) was obtained from Beyotime Inc. The protocol of Western blotting was the same as our previous works. In brief, 2.5 × 10^5 MDA‐MB‐231 cells were treated with different drugs or DMSO (equal volume to experimental groups) for 24 h and lysed with modified RIPA buffer. The cell lysates were added to loading buffer (Beyotime #P0015L) and heated in boiling water for 5 mins and then, together with biomarker (Epizymebiotech; 15–250 kDa), were electrophoresed in SDS‐PAGE gels under 80 V voltage until the biomarker reached the end of gels. Next, SDS‐PAGE gels and PVDF membrane were clipped together to perform transmembrane procedure under 350 mA currency for 1 h. Then after incubation with 5% skim milk, TBST, primary antibody and secondary antibody, the PVDF membrane was treated with ECL chemiluminescence solution (Boster Biological Technology #AR1174) and imaged by the imager (Imager 680 Amersham Imager).

MDA-MB-231 cells [2] = experiment: GreenNuc assay for caspase-3 activation; format: cell-based, human; details: MDA-MB-231, 24 h
Description: Caspase‐3 activation was detected with the GreenNuc caspase‐3 assay kit for live cells (Beyotime Inc). Cells (10^5 cells per well) were seeded in black 96‐well plates and treated with different concentrations of compounds. After 24 h, the medium was discarded, and cells were treated with GreenNuc caspase‐3 substrate at room temperature for 30 min. Fluorescence intensity was measured using a Varioskan plate reader at 485/515 nm, and the final activation folds were calculated.

Structure (SMILES): O=C(CCCCCCNC(=O)c1cc(OCCc2ccccc2)c2ccccc2n1)NO [SDFZ-8]
- general health of the mice (MDA-MB-231 xenograft; MDA-MB-231 xenograft BALB/c-nu mice, 60 mg/kg/day): without adversely affecting the general health of the mice
- TGI (MDA-MB-231 xenograft; MDA-MB-231 xenograft, BALB/c-nu mice, 60 mg/kg/day oral gavage, 22 days): 76%
- antiapoptotic protein Bcl-2 expression (MDA-MB-231 cells [1]): downregulating
- levels of cleaved caspase-3 and cleaved PARP (MDA-MB-231 cells [1]): increase
- proapoptotic protein Bax expression (MDA-MB-231 cells [1]): upregulated
- level of acetylated histone H3 (Ac-H3) (MDA-MB-231 cells [1]; western blotting): upregulation
- level of acetylated tubulin (Ac-tubulin) (MDA-MB-231 cells [1]; western blotting): upregulation
- caspase-3 activation (MDA-MB-231 cells [2]): significantly higher than that observed for SAHA
